Calls of active or inactive are those of the source.
How the values were obtained:
[1] = target: E3 ubiquitin-protein ligase Mdm2 (Homo sapiens, UniProt Q00987); assay: MDM2-luc reporter signal enhancers, multi-concentration potency testing, MDM2 ubiquitin-protein ligase inhibitor program, whole-cell format, luminescence detection, 384-well microplate (AID 1394); type: functional;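 also: MDM2 E3 inhibitors raise luminescence so EC50 is for signal enhancement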
Hexokinase HKDC1 = target: T1, Hexokinase HKDC1 (Homo sapiens, UniProt Q2TB90); assay: inhibition of HKDC1 glucose phosphorylation – biochemical, W721R variant, dose response (AID 504729); type: functional
T1 sequence (Q2TB90 whole entry): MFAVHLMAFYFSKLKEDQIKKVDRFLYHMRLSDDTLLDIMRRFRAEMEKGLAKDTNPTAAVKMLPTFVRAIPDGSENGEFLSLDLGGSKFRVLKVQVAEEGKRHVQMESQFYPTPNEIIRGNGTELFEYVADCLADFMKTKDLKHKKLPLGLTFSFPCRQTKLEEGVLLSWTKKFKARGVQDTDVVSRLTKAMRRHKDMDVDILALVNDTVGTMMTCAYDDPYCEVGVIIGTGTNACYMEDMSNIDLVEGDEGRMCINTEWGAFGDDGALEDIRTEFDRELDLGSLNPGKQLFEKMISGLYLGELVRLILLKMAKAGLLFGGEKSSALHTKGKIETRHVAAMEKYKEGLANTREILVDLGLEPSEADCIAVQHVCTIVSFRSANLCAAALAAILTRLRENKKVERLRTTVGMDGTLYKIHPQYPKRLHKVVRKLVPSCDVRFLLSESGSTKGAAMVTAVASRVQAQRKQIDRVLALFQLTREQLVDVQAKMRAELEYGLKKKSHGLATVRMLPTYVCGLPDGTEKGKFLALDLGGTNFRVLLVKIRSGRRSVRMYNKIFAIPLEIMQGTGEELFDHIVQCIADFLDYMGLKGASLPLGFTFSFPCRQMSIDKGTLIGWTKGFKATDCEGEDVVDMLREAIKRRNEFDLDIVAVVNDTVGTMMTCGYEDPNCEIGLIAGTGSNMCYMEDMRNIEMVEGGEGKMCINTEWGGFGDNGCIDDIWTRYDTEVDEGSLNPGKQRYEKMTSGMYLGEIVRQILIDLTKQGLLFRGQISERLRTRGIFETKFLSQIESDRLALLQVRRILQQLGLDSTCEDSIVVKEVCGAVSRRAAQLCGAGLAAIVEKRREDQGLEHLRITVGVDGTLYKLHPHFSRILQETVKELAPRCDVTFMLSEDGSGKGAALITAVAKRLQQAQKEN

[2] = blockers of bursicon-stimulated LGR2 cAMP reporter – cell-based, HEK293, CRE-luciferase reporter, cherry pick, set 2, dose response (AID 743343); type: functional;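 also: transfected cells were stimulated with diluted bursicon conditioned medium after compound addition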
[3] = toxicity toward HepG2 liver cells – cell-based, plate reader, cherry-pick, antagonist series, cytotoxicity control, dose response (AID 743416); type: functional
[4] = A549 cell cytotoxicity, dose response, cytotoxicity control, plate reader, cherry-pick, antagonist series (AID 743412); type: functional, cell-based
[5] = viability loss in HEK293 cells – cell-based, plate reader, cherry-picked samples, cytotoxicity control, dose response (AID 743446); type: functional
[6] = blockade of melanocortin 4 receptor signaling – cell-based, plate reader, cherry pick, counter-screen for LGR2 antagonist project, dose response (AID 743444); type: functional;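 also: transfected HEK 293 cells stimulated with alpha-MSH peptide; potency of inhibitors of the alpha-MSH evoked signal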
Large T antigen = Large T antigen (Simian virus 40, UniProt P03070); type: functional, Betapolyomavirus macacae;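 also: Confirmatory-stage PubChem screen for compounds that inhibit SV40 T antigen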
[7] = HIV-1 Vif–A3G interaction blockers – biochemical, TR-FRET, GST-Vif 1-94, biotin-A3G peptide, dose response retest, primary screen (AID 1117319); type: functional;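 also: TR-FRET signal of purified GST-Vif binding a biotinylated A3G peptide; inhibitors lower the FRET signal by blocking Vif and A3G binding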
[8] = target: Eukaryotic translation initiation factor 4E (Mus musculus, UniProt P63073); assay: blockers of eIF4G binding by eIF4E – biochemical, TR-FRET, dose response (AID 855); type: functional;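 also: potency for disrupting eIF4E binding to eIF4GI seen as loss of FRET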
[9] = Luminescence Cell-Based Dose Response HTS to Identify Activators of Luciferase Translation or Activity in H4 […] Cells. [Related pubchem assays: 1829 (Project Summary), 1814 (Primary HTS)]; type: functional
H4 = assay: Luminescence Cell-Based Dose Response HTS to Identify Activators of 5'UTR Stem-Loop Driven Prion Protein mRNA Translation in H4 Neuroglioblastoma Cells. [Related pubchem assays: 1829 (Project Summary), 1814 (Primary HTS)]; type: functional; conditions: Homo sapiens
[10] = Luminescence Cell-Based Dose Confirmation HTS to Identify Activators of 5'UTR Stem-Loop Driven Alpha-Synuclein mRNA Translation in H4 Neuroglioblastoma Cells. [Related pubchem assays: 1829 (Project Summary), 1814 (Primary HTS)]; type: functional

Sequence of E3 ubiquitin-protein ligase Mdm2 (Q00987 whole entry): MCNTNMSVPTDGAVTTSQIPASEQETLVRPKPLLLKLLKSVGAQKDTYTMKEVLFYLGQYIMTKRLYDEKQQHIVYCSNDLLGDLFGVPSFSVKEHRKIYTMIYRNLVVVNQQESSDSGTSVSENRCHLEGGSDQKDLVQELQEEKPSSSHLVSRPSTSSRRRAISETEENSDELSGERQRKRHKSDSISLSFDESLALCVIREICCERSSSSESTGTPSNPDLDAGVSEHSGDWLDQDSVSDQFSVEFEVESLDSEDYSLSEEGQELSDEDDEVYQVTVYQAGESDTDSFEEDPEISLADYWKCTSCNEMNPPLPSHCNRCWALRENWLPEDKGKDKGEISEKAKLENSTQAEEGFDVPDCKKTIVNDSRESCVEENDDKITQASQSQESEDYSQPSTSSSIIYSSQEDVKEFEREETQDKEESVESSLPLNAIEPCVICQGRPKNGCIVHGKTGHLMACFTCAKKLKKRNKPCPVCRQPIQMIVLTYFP
Sequence of Eukaryotic translation initiation factor 4E (P63073 whole entry): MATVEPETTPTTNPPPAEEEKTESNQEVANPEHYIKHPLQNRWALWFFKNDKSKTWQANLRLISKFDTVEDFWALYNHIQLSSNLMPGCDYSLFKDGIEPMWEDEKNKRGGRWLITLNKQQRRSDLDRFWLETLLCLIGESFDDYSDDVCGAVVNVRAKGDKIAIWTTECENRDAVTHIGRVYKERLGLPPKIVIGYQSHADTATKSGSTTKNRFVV
Sequence of Large T antigen (P03070 whole entry): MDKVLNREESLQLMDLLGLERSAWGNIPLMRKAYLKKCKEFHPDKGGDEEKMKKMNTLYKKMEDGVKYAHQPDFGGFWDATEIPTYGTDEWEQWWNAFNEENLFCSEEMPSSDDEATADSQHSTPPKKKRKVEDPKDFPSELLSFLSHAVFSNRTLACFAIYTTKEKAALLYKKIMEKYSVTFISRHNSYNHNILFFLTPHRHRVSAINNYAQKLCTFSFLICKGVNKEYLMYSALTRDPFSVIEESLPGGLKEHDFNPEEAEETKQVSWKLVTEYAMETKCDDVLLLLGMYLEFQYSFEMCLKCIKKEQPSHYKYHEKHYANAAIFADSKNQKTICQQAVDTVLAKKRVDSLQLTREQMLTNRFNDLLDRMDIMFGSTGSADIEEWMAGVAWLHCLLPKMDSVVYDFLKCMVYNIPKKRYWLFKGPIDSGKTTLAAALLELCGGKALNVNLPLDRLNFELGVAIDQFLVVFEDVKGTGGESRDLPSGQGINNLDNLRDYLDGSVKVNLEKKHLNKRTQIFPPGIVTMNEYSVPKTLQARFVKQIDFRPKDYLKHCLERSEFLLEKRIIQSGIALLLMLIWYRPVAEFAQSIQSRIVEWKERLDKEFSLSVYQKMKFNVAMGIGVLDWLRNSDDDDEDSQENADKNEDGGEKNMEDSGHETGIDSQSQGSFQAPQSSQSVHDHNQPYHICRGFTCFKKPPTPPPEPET

For `COc1cccc(OC)c1C(=O)NNC(=O)c1cccc(COc2ccc3c(c2)CCC3)c1`, the EC50 [1] was 0.0021 µM (active).

With `CCCc1nc2oc3c(NCC4CCCO4)ncnc3c2c2c1COC(C)(C)C2` (configuration not stated) the IC50 (Hexokinase HKDC1) was 33.2 µM (inactive).

With `Cc1ccn2cc(-c3ccc(Br)cc3)nc2c1` the AC50 [2] was 3.6 µM (active), the AC50 [3] was 49.2 µM (active) and the AC50 [4] was > 52 µM (inactive). For the same compound, the AC50 [5] was 42.6 µM (active) and the AC50 [6] was 2.76 µM (active).

With `COc1cc([N+](=O)[O-])ccc1NC(=O)Oc1ccc(NC(C)=O)cc1` the IC50 (Large T antigen) was 8.79 µM (active) and the IC50 [7] was > 100 µM (active).

For `Cc1ccc(NC2c3ncccc3C(=O)N2c2ccccc2C)cc1C` (configuration not stated), the IC50 [8] was 9.59 µM (active), the IC50 (Hexokinase HKDC1) was 11.6 µM (active) and the EC50 [9] was 16.5 µM (active). The EC50 (H4) was 9.38 µM (active) and the EC50 [10] was 12 µM (active).

For `O=C(O)c1ccc2c(c1)N(Cc1ccccc1F)C(=O)c1ccccc1[S+]2[O-]` (configuration not stated), the EC50 [1] was 237 µM (not active).

In the case of `COc1ccc(CN2C(=O)c3cccnc3C2O)cc1` (configuration not stated), the IC50 (Hexokinase HKDC1) was 21.5 µM (inactive).

With `Cc1ccc(CNC(=O)C2c3ccccc3C(=O)N3CCc4ccccc4C23)o1` (configuration not stated) the IC50 [7] was > 100 µM (active).
